# US20230323414A1, “ENZYME DEHYDROXYLATING HYDROXYL GROUP AT 9-POSITION OF UROLITHIN COMPOUND” (DAICEL CORPORATION, priority 2020, published 2023)
# Tested on: enzyme dehydroxylating the hydroxyl group at the 9-position of urolithins
# Test: Effect of cofactor on enzyme activity (DEAE fraction)
# Format: biochemical, Clostridium bolteae JCM 12243 strain
# Details: for Effect of cofactor on enzyme activity: cofactor individually added; for Relative activity: control without cofactor = 100%, DEAE fraction
# Description: A 100 mM Gly/NaOH buffer (pH 9.5) containing 0.05 mg/mL of urolithin C, 5 mM of NADH, and 1 μM of DTT was mixed with a reaction solution for measuring the enzyme activity of each fraction corresponding to 40 mL of the medium to give a total volume of 500 μL, and the mixture was placed in a 1.5-mL tube. A gas phase in an anaerobic chamber was used as a gas phase (Vinyl Anaerobic Chamber available from Coy Labs), and the mixture was reacted at 45° C. for 13 to 18 hours. After completion of the reaction, 200 μL of N,N-dimethylacetamide containing 10% -formic acid was added and mixed. Then, the mixture was centrifuged (10,000 rpm. 4° C., 3 minutes), and the resulting supernatant was analyzed by HPLC.
# Solutions were prepared to contain a cofactor in a concentration as shown in Table 2 in the reaction solution for measuring the enzyme activity described in Experimental Example 5, and urolithin A produced after the reaction was quantified. The DEAE fraction was used as the enzyme.
# In addition, FAD refers to flavin adenine dinucleotide.
Effect of cofactor on enzyme activity,Relative activity (one cofactor at 10 mM) [%],Relative activity (one cofactor at 0.2 mM) [%],Compound
Increase in activity,186,–,"NC(=O)C1=CN([C@@H]2O[C@H](COP(=O)(O)OP(=O)(O)OC[C@H]3O[C@@H](n4cnc5c(N)ncnc54)[C@H](O)[C@@H]3O)[C@@H](O)[C@H]2O)C=CC1 [No. 2, reduced nicotinamide adenine dinucleotide]"
Increase in activity,161,–,"NC(=O)C1=CN([C@@H]2O[C@H](COP(=O)(O)OP(=O)(O)OC[C@H]3O[C@@H](n4cnc5c(N)ncnc54)[C@H](OP(=O)(O)O)[C@@H]3O)[C@@H](O)[C@H]2O)C=CC1 [No. 3, reduced nicotinamide adenine dinucleotide phosphate]"
–,–,95,"Cc1cc2nc3c(=O)[nH]c(=O)nc-3n(C[C@H](O)[C@H](O)[C@H](O)COP(=O)(O)OP(=O)(O)OC[C@H]3O[C@@H](n4cnc5c(N)ncnc54)[C@H](O)[C@@H]3O)c2cc1C [No. 4, flavin adenine dinucleotide]"
–,–,96,"Cc1cc2nc3c(=O)[nH]c(=O)nc-3n(C[C@H](O)[C@H](O)[C@H](O)COP(=O)(O)O)c2cc1C [No. 5, flavin mononucleotide]"
